According to PubChem BioAssay (NCI):
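GI50 is the concentration that inhibits growth by half. Definition used: TGI = concentration required for complete inhibition of growth.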

Key:
Assay in all cases: NCI-60 cell line screen, 384-well format
786-0 renal = test system: 786-0 renal
A498 renal = test system: A498 renal
A549 NSCLC = test system: A549 NSCLC
ACHN renal = test system: ACHN renal
BT-549 breast = test system: BT-549 breast
CAKI-1 renal = test system: CAKI-1 renal
CCRF-CEM leukemia = test system: CCRF-CEM leukemia
COLO 205 colon = test system: COLO 205 colon
DU-145 prostate = test system: DU-145 prostate
EKVX NSCLC = test system: EKVX NSCLC
HCC-2998 colon = test system: HCC-2998 colon
HCT-116 colon = test system: HCT-116 colon
HCT-15 colon = test system: HCT-15 colon
HL-60(TB) leukemia = test system: HL-60(TB) leukemia
HOP-62 NSCLC = test system: HOP-62 NSCLC
HOP-92 NSCLC = test system: HOP-92 NSCLC
HS 578T breast = test system: HS 578T breast
HT29 colon = test system: HT29 colon
IGROV1 ovarian = test system: IGROV1 ovarian
K-562 leukemia = test system: K-562 leukemia
KM12 colon = test system: KM12 colon
LOX IMVI melanoma = test system: LOX IMVI melanoma
M14 melanoma = test system: M14 melanoma
MALME-3M melanoma = test system: MALME-3M melanoma
MCF7 breast = test system: MCF7 breast
MDA-MB-231 breast = test system: MDA-MB-231 breast
MDA-MB-435 melanoma = test system: MDA-MB-435 melanoma
MDA-MB-468 breast = test system: MDA-MB-468 breast
MOLT-4 leukemia = test system: MOLT-4 leukemia
NCI-H226 lung = test system: NCI-H226 lung
NCI-H23 lung = test system: NCI-H23 lung
NCI-H322M lung = test system: NCI-H322M lung
NCI-H460 NSCLC = test system: NCI-H460 NSCLC
NCI-H522 lung = test system: NCI-H522 lung
NCI/ADR-RES ovarian = test system: NCI/ADR-RES ovarian
OVCAR-3 ovarian = test system: OVCAR-3 ovarian
OVCAR-4 ovarian = test system: OVCAR-4 ovarian
OVCAR-8 ovarian = test system: OVCAR-8 ovarian
PC-3 prostate = test system: PC-3 prostate
RPMI-8226 leukemia = test system: RPMI-8226 leukemia
RXF 393 renal = test system: RXF 393 renal
SF-268 CNS = test system: SF-268 CNS
SF-295 CNS = test system: SF-295 CNS
SF-539 CNS = test system: SF-539 CNS
SK-MEL-28 melanoma = test system: SK-MEL-28 melanoma
SK-MEL-5 melanoma = test system: SK-MEL-5 melanoma
SK-OV-3 ovarian = test system: SK-OV-3 ovarian
SN12C renal = test system: SN12C renal
SNB-19 CNS = test system: SNB-19 CNS
SNB-75 CNS = test system: SNB-75 CNS
SR leukemia = test system: SR leukemia
SW-620 colon = test system: SW-620 colon
T-47D breast = test system: T-47D breast
TK-10 renal = test system: TK-10 renal
U251 glioblastoma = test system: U251 glioblastoma
UACC-257 melanoma = test system: UACC-257 melanoma
UACC-62 melanoma = test system: UACC-62 melanoma
UO-31 renal = test system: UO-31 renal

Cn1ncc(NC(=O)c2nc(-c3c(F)cccc3F)sc2N)c1N1CC[C@@H](N)[C@H](F)CC1
GI50 ([…]-0 renal): 4.22 µM
TGI (786-0 renal): 14.8 µM
GI50 (A498 renal): 3.02 µM
TGI (A498 renal): 13.7 µM
GI50 (A549 NSCLC): 4.22 µM
TGI (A549 NSCLC): 15.7 µM
GI50 (ACHN renal): 3.25 µM
TGI (ACHN renal): 15.6 µM
GI50 (BT-549 breast): 1.72 µM
TGI (BT-549 breast): 5.44 µM
GI50 (CAKI-1 renal): 1.16 µM
TGI (CAKI-1 renal): 4.92 µM
GI50 (CCRF-CEM leukemia): 1.48 µM
TGI (CCRF-CEM leukemia): 3.11 µM
GI50 (COLO 205 colon): 5.42 µM
TGI (COLO 205 colon): 19 µM
GI50 (DU-145 prostate): 4.19 µM
TGI (DU-145 prostate): 15.7 µM
GI50 (EKVX NSCLC): 3.8 µM
TGI (EKVX NSCLC): 17.5 µM
GI50 (HCC-2998 colon): 8.83 µM
TGI (HCC-2998 colon): 21.2 µM
GI50 (HCT-116 colon): 4.01 µM
TGI (HCT-116 colon): 15.6 µM
GI50 (HCT-15 colon): 5.03 µM
TGI (HCT-15 colon): 17.5 µM
GI50 (HL-60(TB) leukemia): 1.51 µM
TGI (HL-60(TB) leukemia): 2.91 µM
GI50 (HOP-62 NSCLC): 5.55 µM
TGI (HOP-62 NSCLC): 18.3 µM
GI50 (HOP-92 NSCLC): 3.18 µM
TGI (HOP-92 NSCLC): 13 µM
GI50 (HS 578T breast): 2.83 µM
TGI (HS 578T breast): 5.52 µM
GI50 (HT29 colon): 7.09 µM
TGI (HT29 colon): 19.9 µM
GI50 (IGROV1 ovarian): 3.69 µM
TGI (IGROV1 ovarian): 13.7 µM
GI50 (K-562 leukemia): 2.19 µM
TGI (K-562 leukemia): 10.6 µM
GI50 (KM12 colon): 6.59 µM
TGI (KM12 colon): 19.3 µM
GI50 (LOX IMVI melanoma): 4.33 µM
TGI (LOX IMVI melanoma): 14.5 µM
GI50 (M14 melanoma): 2.44 µM
TGI (M14 melanoma): 14.3 µM
GI50 (MALME-3M melanoma): 2.58 µM
TGI (MALME-3M melanoma): 12.7 µM
GI50 (MCF7 breast): 2.82 µM
TGI (MCF7 breast): 10.9 µM
GI50 (MDA-MB-231 breast): 4.31 µM
TGI (MDA-MB-231 breast): 16 µM
GI50 (MDA-MB-435 melanoma): 3.2 µM
TGI (MDA-MB-435 melanoma): 15.4 µM
GI50 (MDA-MB-468 breast): 2.8 µM
TGI (MDA-MB-468 breast): 11.6 µM
GI50 (MOLT-4 leukemia): 1.61 µM
TGI (MOLT-4 leukemia): 2.98 µM
GI50 (NCI-H226 lung): 2.22 µM
TGI (NCI-H226 lung): 9.62 µM
GI50 (NCI-H23 lung): 10.9 µM
TGI (NCI-H23 lung): 23 µM
GI50 (NCI-H322M lung): 6.85 µM
TGI (NCI-H322M lung): 21.3 µM
GI50 (NCI-H460 NSCLC): 3.49 µM
TGI (NCI-H460 NSCLC): 12.6 µM
GI50 (NCI-H522 lung): 2.49 µM
TGI (NCI-H522 lung): 9.18 µM
GI50 (NCI/ADR-RES ovarian): 16.5 µM
TGI (NCI/ADR-RES ovarian): 33.2 µM
GI50 (OVCAR-3 ovarian): 3.89 µM
TGI (OVCAR-3 ovarian): 14.9 µM
GI50 (OVCAR-4 ovarian): 18.9 µM
TGI (OVCAR-4 ovarian): 34.2 µM
GI50 (OVCAR-8 ovarian): 7.11 µM
TGI (OVCAR-8 ovarian): 19.7 µM
GI50 (PC-3 prostate): 3.23 µM
TGI (PC-3 prostate): 12.9 µM
GI50 (RPMI-8226 leukemia): 0.0454 µM
TGI (RPMI-8226 leukemia): 4.12 µM
GI50 (RXF 393 renal): 3.15 µM
TGI (RXF 393 renal): 13.1 µM
GI50 (SF-268 CNS): 3.47 µM
TGI (SF-268 CNS): 14.2 µM
GI50 (SF-295 CNS): 5.52 µM
TGI (SF-295 CNS): 17.8 µM
GI50 (SF-539 CNS): 3.21 µM
TGI (SF-539 CNS): 13.3 µM
GI50 (SK-MEL-28 melanoma): 10.4 µM
TGI (SK-MEL-28 melanoma): 22.2 µM
GI50 (SK-MEL-5 melanoma): 1.35 µM
TGI (SK-MEL-5 melanoma): 12.2 µM
GI50 (SK-OV-3 ovarian): 1.83 µM
TGI (SK-OV-3 ovarian): 9.95 µM
GI50 (SN12C renal): 2.55 µM
TGI (SN12C renal): 11.1 µM
GI50 (SNB-19 CNS): 12.1 µM
TGI (SNB-19 CNS): 26.1 µM
GI50 (SNB-75 CNS): 2.93 µM
TGI (SNB-75 CNS): 10.8 µM
GI50 (SR leukemia): 0.0471 µM
TGI (SR leukemia): 0.602 µM
GI50 (SW-620 colon): 3.29 µM
TGI (SW-620 colon): 12.2 µM
GI50 (T-47D breast): 15.3 µM
TGI (T-47D breast): 30 µM
GI50 (TK-10 renal): 2.88 µM
TGI (TK-10 renal): 15.4 µM
GI50 (U251 glioblastoma): 6.23 µM
TGI (U251 glioblastoma): 18.7 µM
GI50 (UACC-257 melanoma): 7.52 µM
TGI (UACC-257 melanoma): 20 µM
GI50 (UACC-62 melanoma): 3.34 µM
TGI (UACC-62 melanoma): 11.7 µM
GI50 (UO-31 renal): 1.96 µM
TGI (UO-31 renal): 5.94 µM
